From patent US7683171B2, “1H-imidazo[4,5-d]thieno[3,2-b]pyridine based tricyclic compounds and pharmaceutical compositions comprising same” (Bristol-Myers Squibb Company, priority 2005, dated 2010) come the findings set out here.

The data set relates to T98. Briefly: Ames testing. It is filed as cell-based. The following applies: T98 with S9 activation. On the technique in general: The Ames test detects mutagens through reverse mutation in bacteria.

Turning to `Cl.Cn1cnc2c(N)nc3cc(-c4cccc(F)c4)sc3c21` [Example A5, 7-(3-Fluorophenyl)-1-methyl-1H-imidazo[4,5-d]thieno[3,2-b]pyridin-4-amine hydrochloride salt], the Ames testing entry was “positive”.
